Reference: ChEMBL document CHEMBL1145565, “Synthesis, biological evaluation and radiochemical labeling of a dansylhydrazone derivative as a potential imaging agent for apoptosis” (2008)
Active and inactive are the calls of the source. The calls are words filed in the database; no cut-off is given here.

Experiments:
HT-29 = experiment: Effect on drug-uptake in imatinib-induced human HT29 apoptotic cells; format: functional, cell-based
K562 = experiment: Effect on drug-uptake in imatinib-induced human K562 apoptotic cells; format: functional, cell-based
MCF7 [1] = experiment: Induction of apoptosis in human MCF7 cells assessed as morphology at 50 nM after 16 hrs; format: functional
MCF7 [2] = experiment: Effect on drug uptake in cytoplasm of paclitaxel-treated human MCF7 apoptotic cells; format: functional, cell-based

Row | SMILES | Activity (HT-29) | Activity (K562) | Activity (MCF7 [1]) [%] | Activity (MCF7 [2])
1 | CN(C)c1ccc(/C=N/NS(=O)(=O)c2cccc3c(N(C)C)cccc23)cc1 | Active | Active | – | –
2 | CN(C)c1cccc2c(S(=O)(=O)N/N=C/c3ccc([N+](=O)[O-])cc3)cccc12 | Active | Active | – | –
3 | CN(C)c1cccc2c(S(=O)(=O)N/N=C/c3ccc(I)cc3)cccc12 | Active | Active | – | –
4 | CC(=O)O[C@H]1C(=O)[C@@]2(C)[C@H]([C@H](OC(=O)c3ccccc3)[C@]3(O)C[C@H](OC(=O)[C@H](O)[C@@H](NC(=O)c4ccccc4)c4ccccc4)C(C)=C1C3(C)C)[C@]1(OC(C)=O)CO[C@@H]1C[C@@H]2O [PACLITAXEL] | – | – | 30 | –
5 | CN(C)c1cccc2c(S(=O)(=O)N/N=C\c3ccc(F)cc3)cccc12 | – | – | – | Active
6 | Cc1cc(=O)cc2c3c1[C@@H]1O[C@H]4[C@@H]5OC(=O)[C@](CC2)([C@@H]4C)[C@H]3[C@@H]51 | Active | Active | – | –
